Assay results: publication PMC12254266, “Multicolored sequential resonance energy transfer for detection of simultaneous ligand binding at G protein-coupled receptors” (Nature Communications, 2025)
Several values for one entry are separate records, joined by “and”; a condition that tells them apart may be missing. Identical values can stand only once.

Legend:
Nluc-FFA1 [1] = biological target: T1, Nluc-FFA1 (Homo sapiens, UniProt O14842); test: NanoBRET binding (saturation, competition, kinetics) at N terminal Nluc tagged FFA1; settings: Nluc-FFA1; for Kd: read-out: Kd, saturation BRET binding
T1 construct: expressed in transfected cells
Experimental: (§1) Nluc-FFA1 or FFA1-Nluc Flp-In T-REx 293 cells were plated at 50,000 cells per well in poly-D-lysine coated white 96-well plates. Cells were cultured for 24 h in the plate before medium was replaced with medium containing 100 ng/mL of doxycycline to induce receptor expression. After culturing for a further 24 h, medium was removed, cells were washed with HBSS and incubated in HBSS for 30 min. To start the assay, NanoGlo substrate (Promega, N1110) was added to the cells at a 1:800 final dilution and incubated for 10 min at 37 °C. For endpoint assays, including both saturation and competition binding, test ligands were then added, including both fluorescent and unlabelled competing ligands as indicated, and plates incubated for a further 5 min at 37 °C. NanoBRET was then quantified in a CLARIOstar microplate reader (BMG Labtech) by measuring luminescent emission with the monochrometer set for the Nluc donor at 450–60 nm, and acceptor luminescent emission 540–60 nm (NBD), 600–80 nm (Cy3.5) or 690–100 nm (SulfoCy5), depending on which fluorophore was being tested. The acceptor/donor BRET ratio was then taken as a measure of fluorophore binding. For kinetic on then off NanoBRET experiments plates were washed the same way and substrate was added to the same concentration. However, 10 min after substrate was added plates were inserted into the CLARIOstar microplate reader set to 25 °C to take repeated measurements of luminescent emission for both the donor and the acceptor fluorophore being used. After 5 min of background measurements, the indicated concentration of fluorescent ligand was added using the plate reader injector and luminescent emission was monitored for ~10 min before the reader was paused to manually add a high concentration of appropriate competing ligand to initiate dissociation. The plate was returned to the reader and luminescence measurements were continued for a further 30 min to monitor dissociation of the fluorescent ligand. For kinetic experiments using multiple concentrations of fluorescent ligand, cells were placed in the plate reader immediately after the addition of Nano-Glo substrate and luminescent measurements were taken. After 5 min, the reader was paused to add the indicated concentrations of fluorescent ligand, before measurements were continued. To set non-specific binding for kinetic experiments, the indicated competing ligand was added 5 min before the addition of the fluorescent ligand.

FFA1 = FFA1 (Homo sapiens, UniProt O14842); test: Ca2+ mobilisation (Fura2) in Flp-In T-REx 293 cells expressing Nluc-FFA1, FFA1-Nluc or untagged FFA1; assay type: cell-based; set-up: expressed in transfected cells
Experimental: Nluc-FFA1, FFA1-Nluc or untagged FFA1 Flp-In T-REx 293 cells were plated at 50,000 cells per well in poly-D-lysine coated black clear bottom 96-well plates. Cells were then cultured for 24 h until reaching confluency before culture medium was replaced with medium containing 100 ng/mL of doxycycline to induce receptor expression. Cells were cultured for a further 24 h before the assay. On the day of the assay culture medium was removed and replaced with medium containing 3 μM Fura2-AM Ca^2+ dye. […] Fura2 fluorescent emission at 520 nm following excitation with each of 340 and 380 nm was measured in regular intervals both before and after adding test compounds for a total of 90 s per well. Calcium responses were determined by taking the peak 340/380 ratio after first subtracting the ratios obtained prior to addition of test compound.

FFA1-Nluc = FFA1-Nluc (Homo sapiens, UniProt O14842); test: NanoBRET binding (saturation, kinetics) at C terminal Nluc tagged FFA1; set-up: expressed in transfected cells; settings: FFA1-Nluc, 95% confidence interval in parentheses; for Kd: read-out: Kd, saturation BRET binding; for BMax, saturation BRET binding: specific BRET
Experimental: as §1

Nluc-FFA1 [2] = biological target: T1, Nluc-FFA1; test: DISCo-BRET with TUG-2591 and TUG-2597 at N terminal Nluc tagged FFA1; assay type: binding; settings: Figure 3F, 10 nM, technical duplicate
Experimental: Nluc-FFA1 or FFA1-Nluc Flp-In T-REx 293 cells were plated at 50,000 cells per well in poly-D-lysine coated white 96-well plates. Cells were cultured for 24 h in the plate before medium was replaced with medium containing 100 ng/mL of doxycycline to induce receptor expression. After culturing for a further 24 h, culture medium was removed, cells washed with HBSS and incubated in HBSS for 30 min. For all DISCo-BRET formats Nano-Glo substrate was then added at a 1:800 final dilution and cells incubated for 10 min. Following substrate addition experimental set up different among the three formats: endpoint, spectra scan, and kinetics.
For endpoint experiments all fluorescent and unlabelled ligands were added to the cells and incubated for 5 min at 37 °C. Luminescent emission was then measured using a CLARIOstar microplate reader with monochromator set at 450–60 nm (Nluc), 540−60 nm (NBD) and 690–100 nm (SulfoCy5). BRET ratios were then calculated as either SulfoCy5 emission divided by NBD emission, SulfoCy5 emission divided by Nluc emission, or NBD emission divided by Nluc emission.
For spectra scan experiments all indicated fluorescent and unlabelled ligands were added to the cells and cells incubated for 5 min at 37 °C. Luminescence emissions were then measured from each well of the plate from 440 nm – 740 nm with a 5 nm resolution using a CLARIOstar microplate. […]

[3] = 95% confidence interval in parentheses
[4] = log[Ligand] -5.5, single technical replicates
[5] = log[Ligand] -6, single technical replicates
[6] = log[Ligand] -6.5, single technical replicates
[7] = log[Ligand] -7, single technical replicates
[8] = log[Ligand] -8, single technical replicates

FFA1, sequence (O14842 whole entry): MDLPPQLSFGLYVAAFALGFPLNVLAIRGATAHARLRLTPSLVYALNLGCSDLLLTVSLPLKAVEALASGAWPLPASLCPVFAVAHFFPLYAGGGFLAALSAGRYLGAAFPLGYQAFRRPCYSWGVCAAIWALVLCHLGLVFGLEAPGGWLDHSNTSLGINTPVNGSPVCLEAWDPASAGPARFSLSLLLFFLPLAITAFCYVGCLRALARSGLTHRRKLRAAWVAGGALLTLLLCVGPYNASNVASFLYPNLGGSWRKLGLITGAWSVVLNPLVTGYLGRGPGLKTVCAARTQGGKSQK
FFA1-Nluc, sequence (O14842 whole entry): as above
T1 sequence (O14842 whole entry): as above

Kd (Nluc-FFA1 [1]; [3])	Kd (FFA1-Nluc)	BMax, saturation BRET binding (FFA1-Nluc)	Compound	Ca2+ Response as a % of T360 Response (FFA1; [4])	Ca2+ Response as a % of T360 Response (FFA1; [5])	Ca2+ Response as a % of T360 Response (FFA1; [6])	Ca2+ Response as a % of T360 Response (FFA1; [7])	Ca2+ Response as a % of T360 Response (FFA1; [8])	further results
520 nM	240 nM	0.022 (0.015−0.038)	Cc1cc(OCCOCCNC(=O)CCCCCN2\C(=C/C=C/C=C/C3=[N+](C)c4ccc(S(=O)(=O)[O-])cc4C3(C)C)C(C)(C)c3ccccc32)ccc1-c1cccc(COc2ccc(CCC(=O)O)c(F)c2)c1 [TUG-2355]	47.56% and 39.50% and 44.99% and 26.68% and 35.66% and 31.10% and 60.09% and 62.76% and 60.18%	6.20% and 5.86% and 4.09% and -1.05% and -0.0134% and -0.48% and -1.46% and 7.50% and -1.37%	0.81% and -1.43% and -1.40% and -2.16% and -1.38% and 1.40% and -3.04% and 3.51% and -1.19%	1.12% and 1.72% and 2.65% and -2.38% and -2.12% and 0.39% and -2.69% and 2.22% and 0.50%	-2.32% and 0.08% and 1.34% and 0.25% and -0.22% and -1.88% and -1.89% and 3.89% and -2.52%	Specific BRET (Nluc-FFA1 [1]; [TUG-2355] 1000 nM, technical triplicates): 0.0476 and 0.0570 and 0.0671 and 0.0472 and 0.0443 and 0.0544; BMax, saturation BRET binding (Nluc-FFA1 [1]; specific BRET, 95% confidence interval in parentheses): 0.083 (0.060−0.14); pEC50 (FFA1; Ca2+ data, mean±SEM, NR = No response): 5.43±0.06; Ca2+ Response as a % of T360 Response (FFA1; FFA1-Nluc cells, log[ligand] -7, technical replicates): -1.03% and 4.29% and 0.96%; Ca2+ Response as a % of T360 Response (FFA1; FFA1-Nluc cells, log[ligand] -7.5, technical replicates): 1.35% and 1.54% and 1.46% and 0.43% and 0.51% and 0.58%; Ca2+ Response as a % of T360 Response (FFA1; FFA1-Nluc, log[TUG-2355] -5, technical triplicates): 62.07 % of T360 Response and 53.90 % of T360 Response and 49.62 % of T360 Response and 44.94 % of T360 Response and 53.23 % of T360 Response and 56.24 % of T360 Response and 74.69 % of T360 Response and 72.06 % of T360 Response; Ca2+ Response as a % of T360 Response (FFA1; Nluc-FFA1, log[TUG-2355] -5, technical triplicates): 78.72 % of T360 Response and 80.47 % of T360 Response and 78.90 % of T360 Response and 53.23 % of T360 Response and 56.24 % of T360 Response and 77.92 % of T360 Response and 57.96 % of T360 Response and 82.25 % of T360 Response; Ca2+ Response as a % of T360 Response (FFA1; Nluc-FFA1 cells, log[ligand] -7, technical replicates): 1.27% and 0.43% and 0.51% and 0.58% and 0.96% and 2.49%; Ca2+ Response as a % of T360 Response (FFA1; Nluc-FFA1 cells, log[ligand] -7.5, technical replicates): 2.49% (2×) and 2.03%; Ca2+ Response as a % of T360 Response (FFA1; Nluc-FFA1 cells, log[ligand] -8, technical replicates): 0.05% and 1.00% and 0.97% and 1.13%; Ca2+ Response as a % of T360 Response (FFA1; log[Ligand] -4.5, single technical replicates): 81.14% and 82.71% and 91.68% and 50.63% and 60.58% and 55.59% and 78.02% and 80.44% and 71.73%; Ca2+ Response as a % of T360 Response (FFA1; log[Ligand] -5, single technical replicates): 78.72% and 80.47% and 78.90% and 53.23% and 56.24% and 77.92% and 57.96% and 82.25%; EMax (FFA1; percentage of response to 10 μM T360, NR = No response): 87±10%
			Cc1cc(OCCCNC(=O)CCCN2\C(=C/C=C/C=C/C3=[N+](C)c4ccc(S(=O)(=O)[O-])cc4C3(C)C)C(C)(C)c3ccccc32)ccc1-c1cccc(COc2ccc(CCC(=O)O)c(F)c2)c1 [TUG-TUG-2591]						Area under the curve from luminecent emission, Total (Nluc-FFA1 [2]): 0.1968 and 0.1494 and 0.1776 and 0.1635 and 0.1742 and 0.2754
200 nM	25 nM	0.007 (0.005−0.01)	Cc1cc(OCCOCCNC(=O)CCCCC[N+]2=C(/C=C/C=C3/N(C)c4ccc5ccccc5c4C3(C)C)C(C)(C)c3c2ccc2ccccc32)ccc1-c1cccc(COc2ccc(CCC(=O)O)c(F)c2)c1.O=C([O-])C(F)(F)F [TUG-2287]	17.83% and 27.69% and 20.05% and -0.41% and 1.34% and 0.65%	5.00% and 8.24% and 2.11% and -0.20% and 0.45% and 0.71%	1.48% and 8.34% and 1.53% and -0.18% and -0.52% and -0.47%	0.96% and 2.49% and 1.27% and 0.43% and 0.51% and 0.58%	2.24% and 3.57% and 0.05% and 1.00% and 0.97% and 1.13%	activity in Ca2+ assays (FFA1; in words): no measurable activity; Ca2+ Response as a % of T360 Response (FFA1; log[Ligand] -9, single technical replicates): 1.37% and 5.16% and 0.91% and -0.52% and -0.36% and 0.88%
